Among the data in a melting point compilation (Tetko et al.; mined from patent text by program, amines drawn as free bases though some values may be those of a salt) are melting point values, retold here.

The melting point is the temperature, or range, at which the solid turns liquid.

`CCOC(=O)c1c[nH]c2nc(N3CCC(N)C3)c(F)cc2c1=O` (stereo not drawn) registered a melting point of 139 to 141 °C.
In the case of `N#Cc1c(N2CCCN(c3ccccc3)CC2)cc[nH]c1=S` it was 128 to 132 °C; in that of `CCN1N=C(c2ccc(F)cc2)c2cc(F)ccc2CS1(=O)=O`, 148 to 151 °C; in that of `CC(NC(=O)Nc1ccc(Br)cn1)c1ncccc1F` (stereo not drawn), 151 to 154 °C.
To `CSc1cnc2c(C)c(C)sc2c1O` belongs 233 to 236 °C.
As for `CC1c2ccccc2N(CCN2CC=C(c3c[nH]c4cc(F)ccc34)CC2)S(=O)(=O)N1C` (stereo not drawn), the melting point lay within 105 to 108 °C.
In turn, `CCCCCCCN1C(=O)C2CC2(c2ccc(N)cc2)C1=O` (stereo not drawn) had a melting point of 78 to 79 °C.
In the case of `CCC(=O)c1ccc(CCNS(=O)(=O)c2ccccc2)cc1` it was 116 °C; in that of `COc1cccc(-c2nc(C(=O)OC(C)(C)C)c(-c3ccncc3)[nH]2)c1`, 197 to 199 °C.
In the case of `CCOC(=O)c1ncc2[nH]c3ccc(I)cc3c2c1C` it was 250 to 255 °C.
In the case of `COc1ccc(-c2ccc(C(C)=O)cc2)cc1C=O` it was 136 to 138 °C.
In the case of `CC1(C)C2CCC1(CCCC(=O)O)CC2`, the melting point lay in the range of 72 to 73 °C.
In the case of `CCN(CCCCC12CC3CC(CC(C3)C1)C2)C(=O)NCCCc1ccncc1` it was 92.7 to 93.7 °C; in that of `CCCSc1ccc(C(=O)C(=O)OCC)[nH]1`, 34 °C.
To `CC(=O)c1c(F)cc2c(=O)c(C(=O)O)cn(CCF)c2c1F` belongs 215 to 216 °C; to `CN1CCN(c2ccc3nc(-c4ccc(F)cc4)c(-c4ccncc4)n3n2)CC1`, 250 °C.
In the case of `COC(=O)c1c(C)cccc1[N+](=O)[O-]` it was 44 to 45 °C; in that of `O=C(C=Cc1ccc(NS(=O)(=O)c2ccccc2)cc1)NO`, 189 to 191 °C.
As for `N=C(NCc1c[nH]c2ccccc12)C(Cl)(Cl)Cl`, the melting point lay within 136 to 138 °C.
To `CCOC(=O)c1c(OC)c2cc(Cl)ccc2c(=O)n1C` belongs 122 to 123 °C; to `CCOc1nn(Cc2ccc(OCc3nc(-c4ccco4)oc3C)c(OC)c2)cc1CCC(=O)O`, 133 to 134 °C; to `O=C(C1=CCCCC1)c1cc(-c2ccccc2)no1`, 70 to 71 °C.
In the case of `CC(=O)c1ccccc1NC(c1c(Cl)cccc1Cl)C1CC1` (stereo not drawn) it was 116 °C; in that of `CCOC(=O)C1=CCCC[C@H]1S(=O)(=O)Nc1ccc(F)cc1Cl`, 47 to 49 °C.
To `O=c1c2c(oc3ccccc13)O2` belongs 66 to 67 °C.
The compound `COc1cc2c(cc1S(=O)(=O)c1ccc(F)cc1)CCN(C)CC2` gave a melting point of 129 to 130 °C.
In the case of `COCC#Cc1ncn2c1CN(C)C(=O)c1c(Cl)cccc1-2` it was 154 to 156 °C; in that of `CNC(=O)NC(=O)C(CC1CCC(O)C1)c1ccc(Cl)c(Cl)c1` (stereo not drawn), 82 to 84 °C; in that of `O=C(Nc1ccccc1)c1ccc(F)c2c1CC(N(CCCc1c[nH]c3ccc(F)cc13)C1CCC1)CO2` (stereo not drawn), 136 °C.
To `O=C(NCc1ccc(Cl)cc1)c1cn(CCN2CCCCC2)c2ccc(C#CCO)cc2c1=O` belongs 176 to 180 °C; to `Cc1cnc2c(c1)CCCC2(C)C(N)=S` (stereo not drawn), 164 °C.
To `CC(C)Oc1cc(CCCOc2cc(CCC(=O)O)n(-c3ccccc3)n2)cc(COc2ccc(Cl)cc2Cl)c1` belongs 104 to 106 °C; to `CC(Br)c1ccc2c(=O)c3ccccc3ccc2c1` (stereo not drawn), 93 to 95 °C; to `O=C1CCc2cc(C(=O)[C@H]3C[C@H]3C(=O)O)ccc2N1` (relative stereo), 190 to 194 °C.
On to `ClCc1c(Cl)c(Cl)c(Cl)c(CCl)c1Cl`, for which the melting point is 135 to 138 °C.
To `CN(Cc1ccccc1)c1ncnc2c(N3CCS(=O)CC3)nc(N3CCNCC3)nc12` belongs 214 to 215 °C; to `CCCCCCCCCCCCSC(CCC)C(=O)Nc1cc(C)c(O)c(C)c1C` (stereo not drawn), 116 °C.
Turning to `O=C(Cn1c(=O)c2cc(Cl)ccc2n(Cc2ccc(Cl)cc2Cl)c1=O)OCCO`, the melting point fell in the range of 167 to 168 °C.
In the case of `Cc1cnc(-n2ccc(C(F)(F)F)n2)nc1Oc1csc(C(F)(F)F)c1` it was 113 to 115 °C.
The compound `Cc1cc2c(cc1C(F)(F)F)N(Cc1cccc(C(=O)O)c1)CCC[C@@H]2N(Cc1cc(C(F)(F)F)cc(C(F)(F)F)c1)c1nnn(C)n1` displayed a melting point of 83 to 86 °C.
The compound `CCN1NN(N)N=C1C` had a melting point of 45 to 50 °C.
To `O=c1c(-c2ccccc2Cl)coc2cc(OCc3nnn[nH]3)cc(Cl)c12` belongs 192 to 195 °C; to `O=C(O)c1ccc2c(c1)CCc1ccc(Br)cc1C2=O`, 218 to 219 °C; to `O=c1[nH]c2ccc(S(=O)(=O)N3CCN(c4ccccn4)CC3)c3c2c2c(cccc12)C3`, 263 to 270 °C.
To `CN1CCN(c2cccc3ccc(NC(=O)c4ccc(Cl)cc4)cc23)CC1` belongs 174 to 175 °C.
In the case of `COc1cc(OC)c([N+](=O)[O-])cc1C(=O)CCCCCl` it was 93 to 95 °C; in that of `N#CCc1cccc2c(-c3ccc([N+](=O)[O-])cc3)nccc12`, 219 °C.
Turning to `COCCN(C)Cc1c(-c2ccc(N)cc2)sc2c1c(=O)n(-c1ccc3c(c1)OCO3)c(=O)n2Cc1c(F)cccc1F`, the melting point lay in the range of 200 to 202 °C.
To `CCCC1(S(=O)(=O)CCC(=O)OC)c2ccccc2-c2ccccc21` belongs 74 to 77 °C; to `CCOC(=O)c1cn(-c2ccc(F)cc2F)c2c(F)c(F)c(F)c(F)c2c1=O`, 160 to 162 °C.
Consider `COc1ccc(-c2cc3cc(C4=NNC(=O)CC4)ccc3[nH]2)cc1`, for which the melting point was in the range of 262 to 264 °C.
To `CCOC(=O)C(CC(C)C)(C(=O)OCC)[C@H](NC(C)=O)[PH](=O)O` belongs 105 to 106 °C.
`Cc1ccc(S(=O)(=O)c2nsc3nc4ccccc4n23)cc1` registered a melting point of 231 to 234 °C.
Consider `CCCCC1=Nc2ccccc2SN1Cc1ccc(-c2ccccc2C(=O)O)cc1`, for which the melting point lay in the range of 125 to 130 °C.
To `CC(C)NCC1COC(=O)C1(c1ccccc1)c1ccccc1` (stereo not drawn) belongs 78 to 80 °C.
In the case of `Nc1nc2c(s1)CCN(CC1=Cc3ccccc3C1)CC2` it was 134 to 138 °C; in that of `Cc1ccc(-c2nc3ccc(C(C)(C)CNC=O)cc3[nH]2)cc1`, 193 to 195 °C.
To `O=C(O)c1cc(=O)c2cc(-c3ccccc3)ccc2s1` belongs 220 °C; to `CC(=O)Nc1ccccc1N(CC(=O)OC(C)(C)C)C(=O)CN1C(=O)c2ccccc2C1=O`, 170 °C; to `O=C1c2ccccc2C(=O)N1OCCc1cn(C(c2ccccc2)(c2ccccc2)c2ccccc2)cn1`, 177 °C.
As to `CCc1cc(NC(=O)c2nnnn2Cc2ccc(OC)cc2)c(O)c(C(C)=O)c1`, the melting point was in the range of 140 to 142 °C.
The compound `O=C(Nc1ccccc1)C1=CNCCC1` returned a melting point of 209 to 212 °C.
In the case of `CCCn1c(=O)nc(Sc2ccc(Cl)cc2)sc1=S` it was 151 to 152 °C; in that of `O=C(Nc1cc(-c2ccnc3c(C(=O)c4cccs4)cnn23)ccc1F)OCCCl`, 194 to 196 °C.
To `CCOC(=O)C=Cc1ccc(N[C@@H](CCC(N)=O)C(=O)O)cc1` belongs 192 to 193 °C.
In the case of `Fc1ccc(NC(=S)Nc2nc3ccc(OC(F)(F)F)cc3s2)cc1` it was 207 °C.
For the compound `O=[N+]([O-])c1cc(F)cc(I)c1O`, the melting point was determined as 40 °C.
`Cc1c[nH]c(=O)n(Cc2ccccc2)c1=O` came in with a melting point of 208 to 210 °C.
In the case of `CNc1cc(S(=O)(=O)c2ccc(N)cc2)cc(C)n1` it was 126 to 127 °C; in that of `CC(C)c1ccc2c(c1)c(SC1CCCCC1)c(CC(C)(C)C(=O)O)n2Cc1ccc(Cl)cc1`, 166 to 168 °C; in that of `Cc1ccc(S(N)(=O)=O)cc1C(O)CCl` (stereo not drawn), 126 °C.
In the case of `CCN(CC)C(=O)CC1CCN(Cc2cnc3cc(NC(=O)c4ccc(-c5ccc(F)cc5)cc4)c(C)cc3c2)CC1` it was 197 °C; in that of `COc1ccc(-c2nn(CC(C)=O)c(=O)cc2-c2ccncc2)cc1`, 68.3 to 70.6 °C.
In the case of `O=C(Nc1nc(C(Cl)(Cl)Cl)ns1)c1cc([N+](=O)[O-])cc([N+](=O)[O-])c1` it was 197 °C; in that of `CC(C)(C)c1ccc(C(=O)Nc2cn3cc(-c4ccccc4)ccc3n2)cc1`, 252 to 253 °C; in that of `O=C(/C=C/c1cccc(F)c1)N1CCN(C(=O)c2cc(C(F)(F)F)cc(C(F)(F)F)c2)[C@H](Cc2c[nH]c3ccccc23)C1`, 120 to 130 °C.
In turn, `COC(=N)c1ncn(C2OC(CO)C(O)C2O)n1` (stereo not drawn) came in with a melting point of 150 to 153 °C.
For `O=C(c1ccc(C2=CCCc3ccccc32)cc1)N1Cc2cccn2Cc2ccccc21`, the melting point was 81 °C.
In the case of `Cc1nc(N2CCN(Cc3ccccc3)C2=O)sc1C(=O)NCc1ccc(F)c(F)c1` it was 152 to 153 °C; in that of `O=C(O)CCc1cccc(Oc2cccc(-c3nnc(Nc4ccc(Cl)c(Cl)c4)s3)c2)c1`, 194 to 196 °C; in that of `CCN1C(=O)N(c2ccc([N+](=O)[O-])c(C(F)(F)F)c2)C(=O)C1(C)C`, 110 to 111 °C.
In the case of `Nc1ccc(Oc2cc(F)c(C(F)(F)F)c(Cl)c2)cc1` it was 55 to 57 °C.
In the case of `COC1C=C(C)C(=O)CC(C)(C)C1OC(=O)c1ccccc1` (stereo not drawn) it was 91.5 to 93.5 °C; in that of `Cc1c(S(=O)(=O)c2ccc(=O)[nH]n2)oc2ccc(C(F)(F)F)cc12`, 244 to 245 °C; in that of `FC(F)(F)c1cc(Cl)c(-n2nccc2Cl)c(Cl)c1`, 70 to 72 °C.
The compound `CN1CCN(c2cccc3c2C[C@H](NC(=O)c2csc(-c4ccncc4)n2)CC3)CC1` displayed a melting point of 187 to 188 °C.
`COc1ccc(S(=O)(=O)C=CC(=O)O)cc1` came in with a melting point of 123 to 128 °C.
In the case of `COC(=O)[C@@]12CN(Cc3ccccc3)C[C@@H]1[C@@](O)(c1ccc(OC)cc1)CC[C@H]2c1ccccc1` (racemic), the melting point came to 136 °C.
